From article PMC11433283, “Sulfated Aeruginosins from Lake Kinneret: Microcystis Bloom, Isolation, Structure Elucidation, and Biological Activity” (Marine Drugs, 2024)

Target: T1, serine protease trypsin (Bos taurus, UniProt P00760)
T1 construct: purchased Sigma-Aldrich T1426
T1 sequence (P00760 24-246): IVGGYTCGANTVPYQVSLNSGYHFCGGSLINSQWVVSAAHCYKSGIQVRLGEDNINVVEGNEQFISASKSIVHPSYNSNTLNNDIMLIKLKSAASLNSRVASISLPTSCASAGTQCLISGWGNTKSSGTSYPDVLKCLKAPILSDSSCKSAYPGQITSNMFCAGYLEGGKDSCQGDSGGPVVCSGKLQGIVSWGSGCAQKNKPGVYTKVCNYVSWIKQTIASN
Assay: Trypsin inhibition (protease inhibition assay, BAPNA substrate)
Type: biochemical
Settings: for IC50: Tris buffer (50 mM Tris-HCl, 100 mM NaCl, 1 mM CaCl2, pH 7.5), 37 °C, 5 min pre-incubation, absorbance 405 nm, kinetic over 10 min; for IC50 values for trypsin compared with those of aeruginosins KT608A and KT608B: comparison with literature values of KT608A and KT608B [19]
Description: The samples for biological assays were dissolved in ethanol at a concentration of 1 mg/mL and further diluted with Tris buffer to the desired concentrations. The samples were tested for inhibition of trypsin (Cat# T1426, Sigma-Aldrich, St. Louis, MO, USA). The assay was performed in a Tris buffer (50 mM Tris-HCl, 100 mM NaCl, and 1 mM CaCl2 at pH 7.5). Benzoyl-L-arginine-p-nitroanilide hydrochloride (BAPNA Cat# 03,310 Chem-Impex Int’l Inc., Wood Dale, IL, USA), the trypsin substrate was dissolved at 1 mg/mL in 1:9 EtOH/buffer. The enzyme was dissolved in a buffer at 1 mg/mL. To each well were added 100 µL of buffer, 10 µL of enzyme, and 10 µL of sample. The plate was placed in the spectrophotometer at 37 °C. After 5 min, 100 µL of substrate solution was added to each well, and the plate was placed in the spectrophotometer for the kinetic measurement of the absorbance intensity over 10 min at a wavelength of 405 nm.

Row | Compound | Inhibition of trypsin (inactive at tested concentration) (at a concentration of 1.7 mM, BAPNA substrate, pH 7.5, 37 °C, 405 nm) | IC50 (BAPNA substrate) | IC50 values for trypsin compared with those of aeruginosins KT608A and KT608B
1 | 6-Cl-Hpla-7-sulfate-2-Ile-Choi-amide [Aeruginosin KT575] | inactive |  | 
2 | N=C(N)NCCCCNC(=O)[C@@H]1C[C@@H]2CC[C@@H](OS(=O)(=O)O)C[C@@H]2N1C(=O)[C@@H](Cc1ccccc1)NC(=O)[C@@H](O)Cc1ccc(O)cc1 [Aeruginosin KT688, L-Hpla-D-Phe-L-Choi-6-sulfate-agmatine] |  | 2380 nM | comparable with those of aeruginosins KT608A and KT608B
3 | N=C(N)NCCCCNC(=O)[C@@H]1C[C@@H]2CC[C@@H](OS(=O)(=O)O)C[C@@H]2N1C(=O)[C@H](CCc1ccc(O)cc1)NC(=O)[C@@H](O)Cc1ccc(O)cc1 [Aeruginosin KT718, L-Hpla-L-Hty-L-Choi-6-sulfate-Agm] |  | 1430 nM | comparable with those of aeruginosins KT608A and KT608B
